Active and inactive are the calls of the source.

From ChEMBL document CHEMBL1201862, “PubChem BioAssay data set” (2004) come the findings set out here.

A short description of test [1]: Luminescence Cell-Based Dose Confirmation HTS to Identify Activators of 5'UTR Stem-Loop Driven Alpha-Synuclein mRNA Translation in H4 Neuroglioblastoma Cells. [Related pubchem assays: 1829 (Project Summary), 1814 (Primary HTS)]. Format: functional.
The next test addresses T1, Bcl-2-like protein 10 (Homo sapiens, UniProt Q9HD36).
T1 sequence (Q9HD36 whole entry): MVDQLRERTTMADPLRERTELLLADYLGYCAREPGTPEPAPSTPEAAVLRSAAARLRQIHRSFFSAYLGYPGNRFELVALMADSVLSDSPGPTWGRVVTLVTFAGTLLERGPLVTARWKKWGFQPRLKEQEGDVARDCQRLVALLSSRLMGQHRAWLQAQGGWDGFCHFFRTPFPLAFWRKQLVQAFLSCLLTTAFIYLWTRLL
Nature of the test: displacers of TR3 peptide from Bcl-B, primary screen, selectivity assay for Bfl-1 inhibitor project, biochemical, fluorescence polarization, FITC-TR3 peptide (AID 748).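 Also: fluorescence polarization from a fluorescein-labelled TR3 peptide binding purified Bcl-B.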

A further test deals with H4. The experiment in a line: Luminescence Cell-Based Dose Response HTS to Identify Activators of 5'UTR Stem-Loop Driven Prion Protein mRNA Translation in H4 Neuroglioblastoma Cells. [Related pubchem assays: 1829 (Project Summary), 1814 (Primary HTS)]. Format: functional. The conditions noted are these: Homo sapiens.
Test [2] can be described thus: Luminescence Cell-Based Dose Response HTS to Identify Activators of Luciferase Translation or Activity in H4 […] Cells. [Related pubchem assays: 1829 (Project Summary), 1814 (Primary HTS)]. Format: functional.
Another test deals with Beta-galactosidase (Escherichia coli, UniProt Q8VNN2). The experiment in a line: beta-galactosidase enzyme inhibitors and activators, dose response, artefact control for CCR6 antagonist project, biochemical, E. coli enzyme, set 3 (AID 504712). Format: functional.
Test [3] deals with Glyceraldehyde-3-phosphate dehydrogenase (Homo sapiens, UniProt P04406).
Glyceraldehyde-3-phosphate dehydrogenase, sequence (P04406 whole entry): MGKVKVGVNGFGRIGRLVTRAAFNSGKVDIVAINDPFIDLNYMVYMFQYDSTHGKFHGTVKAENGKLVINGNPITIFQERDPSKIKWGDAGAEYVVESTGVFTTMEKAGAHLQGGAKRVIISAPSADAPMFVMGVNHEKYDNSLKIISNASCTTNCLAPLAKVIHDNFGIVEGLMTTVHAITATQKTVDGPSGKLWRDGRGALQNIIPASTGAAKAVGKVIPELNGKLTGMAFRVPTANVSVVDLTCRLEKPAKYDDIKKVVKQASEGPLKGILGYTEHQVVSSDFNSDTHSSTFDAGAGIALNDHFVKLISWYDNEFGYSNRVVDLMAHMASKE
The target in another test is Trypsin (Sus scrofa, UniProt P00761). The experiment in a line: porcine trypsin inhibitors, dose response, selectivity assay for Rce1 protease inhibitor project, biochemical, quenched peptide fluorescence, cherry-pick (AID 488789).
Trypsin, sequence (P00761 whole entry): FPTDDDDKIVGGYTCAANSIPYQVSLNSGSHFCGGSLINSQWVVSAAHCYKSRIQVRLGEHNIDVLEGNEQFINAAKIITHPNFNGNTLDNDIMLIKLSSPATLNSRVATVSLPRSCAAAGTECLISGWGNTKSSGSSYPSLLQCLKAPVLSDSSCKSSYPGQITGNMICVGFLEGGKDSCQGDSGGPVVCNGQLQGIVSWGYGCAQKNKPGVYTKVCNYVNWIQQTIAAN
The target of another test is T2, CAAX prenyl protease 2 (Saccharomyces cerevisiae S288c, UniProt Q03530).
T2 sequence (Q03530 whole entry): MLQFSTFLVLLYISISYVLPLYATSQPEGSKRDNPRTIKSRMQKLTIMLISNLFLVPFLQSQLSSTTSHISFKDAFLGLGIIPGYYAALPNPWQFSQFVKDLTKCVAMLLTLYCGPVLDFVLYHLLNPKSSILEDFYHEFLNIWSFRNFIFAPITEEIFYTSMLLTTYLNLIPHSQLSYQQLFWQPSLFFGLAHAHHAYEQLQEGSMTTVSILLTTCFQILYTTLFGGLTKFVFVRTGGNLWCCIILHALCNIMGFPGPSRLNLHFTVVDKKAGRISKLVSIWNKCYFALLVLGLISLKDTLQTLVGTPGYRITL
Format: biochemical.

A short description of test [4]: growth suppression of PTEN-null colon cells, dose response, cell-based, HCT116 PTEN knockout (AID 1047).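 Also: HCT116 colon tumor cells with PTEN knocked out; cells exposed to compound for 60 hours before readout; potency for loss of cell viability measured by luminescence.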 Type of test: functional.
A short description of test [5]: growth suppression of beta-catenin-knockout colon cells, dose response, cell-based, HCT116, human colon tumor (AID 1045).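 Also: HCT116 colon tumor cells with beta catenin knocked out; cells exposed to compound for 60 hours.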 Format: functional.
Test [6] can be described thus: C. albicans growth with fluconazole, confirmation, fluorescence, retest (AID 2467). Type of test: functional, cell-based.
Test [7] in a line: NIH-3T3 fibroblast cytotoxicity, dose response, cytotoxicity control, cell-based, fluorescence, Alamar Blue, secondary assay (AID 2327).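 Also: NIH-3T3 mouse fibroblasts cultured with fluconazole at 8 µg/mL.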 Type of test: functional. On the technique in general: Resazurin is reduced to fluorescent resorufin, in cell work by metabolically active cells.
The target of another test is Large T antigen (Simian virus 40, UniProt P03070). Format: functional, Betapolyomavirus macacae.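 Also: Confirmatory-stage PubChem screen for compounds that inhibit SV40 T antigen.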
Large T antigen, sequence (P03070 whole entry): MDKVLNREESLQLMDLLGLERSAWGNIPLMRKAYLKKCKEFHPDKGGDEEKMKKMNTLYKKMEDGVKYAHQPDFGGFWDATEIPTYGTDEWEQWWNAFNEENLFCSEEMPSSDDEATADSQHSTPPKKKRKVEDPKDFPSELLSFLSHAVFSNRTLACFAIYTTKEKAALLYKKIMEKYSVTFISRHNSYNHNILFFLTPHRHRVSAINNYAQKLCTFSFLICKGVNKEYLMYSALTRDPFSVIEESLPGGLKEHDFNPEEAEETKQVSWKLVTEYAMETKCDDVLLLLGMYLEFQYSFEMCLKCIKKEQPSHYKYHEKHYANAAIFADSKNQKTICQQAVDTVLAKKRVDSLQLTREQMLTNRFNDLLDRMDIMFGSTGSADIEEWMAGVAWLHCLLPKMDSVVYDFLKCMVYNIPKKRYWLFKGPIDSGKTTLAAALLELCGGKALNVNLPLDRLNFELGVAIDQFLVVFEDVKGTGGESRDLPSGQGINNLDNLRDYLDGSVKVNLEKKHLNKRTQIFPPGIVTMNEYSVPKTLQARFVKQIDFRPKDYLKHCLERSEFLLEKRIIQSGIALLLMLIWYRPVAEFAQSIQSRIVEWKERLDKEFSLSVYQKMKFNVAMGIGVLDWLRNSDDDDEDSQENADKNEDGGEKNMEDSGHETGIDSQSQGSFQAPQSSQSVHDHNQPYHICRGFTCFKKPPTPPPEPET
The nature of test [8]: cytotoxicity toward NIH3T3 fibroblasts, dose response, counter-screen, cell-based, ATP luminescence, mouse fibroblasts (AID 2010).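 Also: cells exposed to compound for about 90 hours before reading.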 Type of test: functional.
The nature of test [9]: Shn3 3'UTR reporter inhibitors, dose response, cell-based, Clone20 osteoblasts, firefly luciferase, cherry-picked (AID 624132).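 Also: firefly luciferase luminescence from reporter carrying the Shn3 3'UTR in osteoblasts.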 Format: functional.
Test [10] can be described thus: control 3'UTR Renilla luciferase suppression, dose response, counter-screen for Shn3 inhibitor project, cell-based, Clone20-Shn3RL, cherry-picked (AID 624133). Type of test: functional.
A short description of test [11]: inhibitors of intracellular T. cruzi replication, confirmation, NIH3T3 host cells, beta-gal luminescence (AID 2044).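 Also: intracellular parasites grown in NIH/3T3 mouse fibroblasts as host cells; luminescent beta-galactosidase reporter signal from transgenic T. cruzi replicating inside host cells; inhibitors lower the luminescence signal.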 Type of test: functional, cell-based.
Test [12] has as its target Heat shock protein HSP 90-alpha (Homo sapiens, UniProt P07900). Type of test: functional, organism-based.
In test [13] the target is T3, Voltage-gated N-type calcium channel alpha-1B subunit/Amyloid beta A4 precursor protein-binding family A member 1 (Homo sapiens, UniProt Q00975+Q02410). Format: protein assay.
T3 sequence (Q00975 whole entry): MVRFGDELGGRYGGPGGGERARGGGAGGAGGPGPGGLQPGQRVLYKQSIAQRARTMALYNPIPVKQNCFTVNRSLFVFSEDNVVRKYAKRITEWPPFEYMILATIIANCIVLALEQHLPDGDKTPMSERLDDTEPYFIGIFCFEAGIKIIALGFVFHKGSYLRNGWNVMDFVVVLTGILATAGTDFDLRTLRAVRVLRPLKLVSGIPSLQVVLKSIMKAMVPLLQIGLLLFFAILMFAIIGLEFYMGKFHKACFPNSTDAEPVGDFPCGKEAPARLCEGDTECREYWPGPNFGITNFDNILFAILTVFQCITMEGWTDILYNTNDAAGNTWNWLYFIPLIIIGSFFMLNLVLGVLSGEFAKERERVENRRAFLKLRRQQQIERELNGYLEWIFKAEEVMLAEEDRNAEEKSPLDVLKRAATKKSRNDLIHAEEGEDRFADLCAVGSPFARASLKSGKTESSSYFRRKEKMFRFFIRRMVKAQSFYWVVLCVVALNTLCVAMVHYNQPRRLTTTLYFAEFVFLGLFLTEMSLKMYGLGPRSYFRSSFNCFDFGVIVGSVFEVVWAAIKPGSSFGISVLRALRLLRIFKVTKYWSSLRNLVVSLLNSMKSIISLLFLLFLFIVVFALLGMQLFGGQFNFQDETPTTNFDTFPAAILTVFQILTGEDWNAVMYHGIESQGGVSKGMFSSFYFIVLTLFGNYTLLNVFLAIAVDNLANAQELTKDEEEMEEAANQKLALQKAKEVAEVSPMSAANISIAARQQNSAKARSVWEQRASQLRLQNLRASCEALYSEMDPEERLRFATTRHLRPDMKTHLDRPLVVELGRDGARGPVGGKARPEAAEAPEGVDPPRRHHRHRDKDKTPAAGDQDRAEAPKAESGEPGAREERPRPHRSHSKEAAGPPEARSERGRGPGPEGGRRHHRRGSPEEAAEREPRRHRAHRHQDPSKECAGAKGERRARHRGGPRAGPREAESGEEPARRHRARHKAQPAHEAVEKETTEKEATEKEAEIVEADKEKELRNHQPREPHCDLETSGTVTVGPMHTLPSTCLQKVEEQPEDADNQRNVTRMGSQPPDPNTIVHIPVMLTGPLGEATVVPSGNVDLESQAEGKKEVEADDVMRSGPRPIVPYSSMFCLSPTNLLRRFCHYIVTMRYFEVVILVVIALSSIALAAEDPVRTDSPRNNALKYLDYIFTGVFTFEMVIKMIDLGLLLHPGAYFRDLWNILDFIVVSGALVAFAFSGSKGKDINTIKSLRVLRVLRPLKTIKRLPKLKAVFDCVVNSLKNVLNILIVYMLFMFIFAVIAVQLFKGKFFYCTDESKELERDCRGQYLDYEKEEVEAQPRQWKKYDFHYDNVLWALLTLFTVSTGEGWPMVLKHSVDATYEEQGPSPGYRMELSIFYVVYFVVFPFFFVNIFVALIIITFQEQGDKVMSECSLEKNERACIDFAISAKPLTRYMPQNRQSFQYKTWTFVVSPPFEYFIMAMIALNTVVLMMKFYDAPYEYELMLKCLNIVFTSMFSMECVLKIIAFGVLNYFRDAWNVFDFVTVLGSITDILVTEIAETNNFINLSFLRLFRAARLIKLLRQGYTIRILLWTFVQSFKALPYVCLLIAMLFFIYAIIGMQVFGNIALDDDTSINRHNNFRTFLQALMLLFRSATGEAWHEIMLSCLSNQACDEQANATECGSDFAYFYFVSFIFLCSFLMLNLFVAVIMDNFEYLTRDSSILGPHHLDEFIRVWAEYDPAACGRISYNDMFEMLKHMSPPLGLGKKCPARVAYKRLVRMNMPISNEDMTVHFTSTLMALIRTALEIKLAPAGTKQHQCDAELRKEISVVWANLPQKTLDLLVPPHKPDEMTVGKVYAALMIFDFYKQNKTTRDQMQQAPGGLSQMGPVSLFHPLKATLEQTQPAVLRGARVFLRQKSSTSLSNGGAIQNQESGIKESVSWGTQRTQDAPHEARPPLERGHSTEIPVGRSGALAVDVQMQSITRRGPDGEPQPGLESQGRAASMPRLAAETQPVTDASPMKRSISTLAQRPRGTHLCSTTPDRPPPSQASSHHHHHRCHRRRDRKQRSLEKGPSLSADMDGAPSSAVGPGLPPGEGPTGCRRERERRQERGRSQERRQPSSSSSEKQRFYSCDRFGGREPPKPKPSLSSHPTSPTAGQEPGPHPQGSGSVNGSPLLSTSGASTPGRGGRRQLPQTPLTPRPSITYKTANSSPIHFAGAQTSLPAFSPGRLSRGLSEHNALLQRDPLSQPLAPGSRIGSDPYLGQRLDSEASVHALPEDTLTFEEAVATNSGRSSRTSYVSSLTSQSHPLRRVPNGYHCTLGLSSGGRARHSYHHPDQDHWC
T3 sequence (Q02410 whole entry): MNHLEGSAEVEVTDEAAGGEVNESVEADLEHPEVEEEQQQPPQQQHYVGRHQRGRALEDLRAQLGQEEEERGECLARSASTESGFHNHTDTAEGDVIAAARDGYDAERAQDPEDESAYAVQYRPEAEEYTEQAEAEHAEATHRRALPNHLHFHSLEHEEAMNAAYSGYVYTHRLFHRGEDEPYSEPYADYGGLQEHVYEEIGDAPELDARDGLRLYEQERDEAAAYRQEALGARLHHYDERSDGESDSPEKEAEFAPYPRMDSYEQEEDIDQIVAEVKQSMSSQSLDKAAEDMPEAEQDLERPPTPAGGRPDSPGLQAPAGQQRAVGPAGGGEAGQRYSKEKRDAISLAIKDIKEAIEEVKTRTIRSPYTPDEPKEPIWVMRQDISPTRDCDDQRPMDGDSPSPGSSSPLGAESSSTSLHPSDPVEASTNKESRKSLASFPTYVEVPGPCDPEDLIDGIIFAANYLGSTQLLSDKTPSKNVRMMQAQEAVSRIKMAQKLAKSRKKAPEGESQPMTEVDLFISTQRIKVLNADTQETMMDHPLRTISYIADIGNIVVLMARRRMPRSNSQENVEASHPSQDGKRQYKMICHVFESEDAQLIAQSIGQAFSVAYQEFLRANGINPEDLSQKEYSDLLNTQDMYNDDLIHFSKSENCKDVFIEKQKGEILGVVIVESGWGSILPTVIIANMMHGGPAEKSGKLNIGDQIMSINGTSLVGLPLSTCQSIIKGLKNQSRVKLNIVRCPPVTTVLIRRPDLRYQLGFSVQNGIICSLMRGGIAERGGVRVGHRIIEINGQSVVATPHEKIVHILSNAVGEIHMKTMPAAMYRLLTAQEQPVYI
Test [14] concerns the target T3, Voltage-gated N-type calcium channel alpha-1B subunit/Amyloid beta A4 precursor protein-binding family A member 1. Format: protein assay. This is another data set of the same source.
A short description of test [15]: HepG2 cell cytotoxicity, dose response, cytotoxicity control for Shn3 inhibitor project, CellTiter-Glo, cherry-picked (AID 624134). Type of test: functional, cell-based.
The nature of test [16]: M. tuberculosis H37Rv growth inhibitors, H37Rv strain (AID 1626). Type of test: functional.
For test [17], the target named is T4, Rac GTPase-activating protein 1 (Homo sapiens, UniProt Q9H0H5).
T4 sequence (Q9H0H5 whole entry): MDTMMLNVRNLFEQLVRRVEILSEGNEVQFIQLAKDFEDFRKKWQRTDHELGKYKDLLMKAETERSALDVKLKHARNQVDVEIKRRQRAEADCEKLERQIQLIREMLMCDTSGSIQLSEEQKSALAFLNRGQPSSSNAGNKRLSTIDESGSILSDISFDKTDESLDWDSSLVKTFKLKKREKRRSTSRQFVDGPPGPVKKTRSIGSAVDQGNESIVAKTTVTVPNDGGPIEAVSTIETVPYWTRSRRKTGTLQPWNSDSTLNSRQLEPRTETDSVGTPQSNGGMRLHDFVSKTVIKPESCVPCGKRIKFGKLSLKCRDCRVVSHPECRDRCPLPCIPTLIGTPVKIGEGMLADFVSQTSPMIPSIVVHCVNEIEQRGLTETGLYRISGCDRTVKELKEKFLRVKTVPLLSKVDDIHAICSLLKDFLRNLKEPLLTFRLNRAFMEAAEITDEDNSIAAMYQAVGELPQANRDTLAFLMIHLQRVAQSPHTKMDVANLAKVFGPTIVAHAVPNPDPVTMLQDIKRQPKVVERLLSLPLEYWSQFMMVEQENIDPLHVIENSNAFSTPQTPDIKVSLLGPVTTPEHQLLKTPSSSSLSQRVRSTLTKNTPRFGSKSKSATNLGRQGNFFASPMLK
Nature of the test: MgcRacGAP GTPase-activating activity inhibitors, confirmation, biochemical, ADP Hunter fluorescence, primary and confirmatory (AID 624330). Format: functional.

The target of test [18] is T5, Calpain-2 catalytic subunit (Sus scrofa, UniProt P43367).
T5 sequence (P43367 whole entry): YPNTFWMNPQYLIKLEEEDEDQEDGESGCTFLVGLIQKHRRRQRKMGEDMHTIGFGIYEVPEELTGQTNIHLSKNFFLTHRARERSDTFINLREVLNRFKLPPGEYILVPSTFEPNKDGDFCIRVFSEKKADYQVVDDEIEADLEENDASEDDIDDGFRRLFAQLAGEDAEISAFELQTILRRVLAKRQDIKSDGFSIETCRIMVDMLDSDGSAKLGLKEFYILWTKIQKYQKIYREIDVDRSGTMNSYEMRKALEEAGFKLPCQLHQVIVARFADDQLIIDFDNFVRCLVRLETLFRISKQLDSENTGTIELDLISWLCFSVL
The experiment in a line: pig calpain II inhibitor potency, dose response, biochemical, fluorogenic peptide substrate (AID 1420). Type of test: functional.

The nature of test [19]: Luminescence-based counterscreen assay for KLF5 inhibitors: dose response cell-based high throughput screening assay to identify cytotoxic compounds using the IEC-6 intestinal epithelial cell line. [Related pubchem assays: 1700 (Primary screen.), 1834 (Confirmation screen.), 1858 (Summary AID.), 1905 (Counterscreen.)]. Format: functional.
Test [20] deals with T6, COUP transcription factor 2 (Homo sapiens, UniProt P24468).
T6 sequence (P24468 whole entry): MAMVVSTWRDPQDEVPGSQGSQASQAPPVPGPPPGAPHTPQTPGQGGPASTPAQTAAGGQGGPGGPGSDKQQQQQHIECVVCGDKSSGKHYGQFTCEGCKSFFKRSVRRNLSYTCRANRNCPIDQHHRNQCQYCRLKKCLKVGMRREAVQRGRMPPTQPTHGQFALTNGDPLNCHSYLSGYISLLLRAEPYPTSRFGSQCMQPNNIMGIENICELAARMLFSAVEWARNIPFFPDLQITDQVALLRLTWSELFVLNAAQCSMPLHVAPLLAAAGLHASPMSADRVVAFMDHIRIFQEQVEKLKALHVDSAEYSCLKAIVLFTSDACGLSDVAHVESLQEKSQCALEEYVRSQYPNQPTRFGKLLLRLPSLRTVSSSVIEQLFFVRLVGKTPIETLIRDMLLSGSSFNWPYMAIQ
Nature of the test: Luminescence-based cell-based high throughput dose response assay to identify inhibitors of COUP-TFII (NR2F2). Type of test: functional.

Another test deals with Protein Wnt-3a (Mus musculus, UniProt P27467). Nature of the test: Wnt3a-driven reporter signaling inhibition, dose response, selectivity assay for Gli-SUFU antagonist project, Wnt-LIGHT cells, luminescence (AID 651570).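 Also: Wnt-LIGHT reporter cells stimulated with conditioned medium from Wnt3a-producing cells.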 Type of test: functional. The note with it: read-out: IC50_Mean.
Protein Wnt-3a, sequence (P27467 whole entry): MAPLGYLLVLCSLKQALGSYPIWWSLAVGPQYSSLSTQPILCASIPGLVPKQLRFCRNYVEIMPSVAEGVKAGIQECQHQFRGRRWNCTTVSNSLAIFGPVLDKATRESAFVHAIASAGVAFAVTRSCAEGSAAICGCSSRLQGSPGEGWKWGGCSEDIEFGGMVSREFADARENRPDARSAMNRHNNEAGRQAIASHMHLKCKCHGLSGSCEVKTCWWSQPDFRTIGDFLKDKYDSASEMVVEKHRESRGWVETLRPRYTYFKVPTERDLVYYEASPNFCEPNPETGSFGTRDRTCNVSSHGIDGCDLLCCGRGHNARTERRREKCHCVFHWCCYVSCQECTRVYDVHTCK
Test [21] has as its target T7, Tyrosine-protein phosphatase non-receptor type 7 (Homo sapiens, UniProt P35236).
T7 sequence (P35236 whole entry): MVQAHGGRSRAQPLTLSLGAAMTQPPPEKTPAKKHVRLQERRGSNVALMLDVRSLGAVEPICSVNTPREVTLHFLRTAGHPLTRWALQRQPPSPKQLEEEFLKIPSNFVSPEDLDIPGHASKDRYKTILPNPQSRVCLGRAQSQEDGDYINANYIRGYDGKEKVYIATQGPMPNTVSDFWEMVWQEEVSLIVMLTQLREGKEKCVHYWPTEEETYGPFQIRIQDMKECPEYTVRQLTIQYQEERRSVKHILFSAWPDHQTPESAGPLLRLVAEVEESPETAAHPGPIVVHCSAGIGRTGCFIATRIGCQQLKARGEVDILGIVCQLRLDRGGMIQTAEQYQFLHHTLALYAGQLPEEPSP
Nature of the test: redox-dependent HePTP inhibition, mechanism study, biochemical, fluorescence (AID 2068). Format: functional.

As for `O=C(CCN1CCc2ccccc21)c1ccc2c(c1)OCCO2`, the values for the EC50 (in test [1]; in the test on H4; in test [2]) were 53.2 µM (active), 46.1 µM (active) and 110 µM (active), respectively. At Bcl-2-like protein 10, the IC50 is 59.3 µM (inactive).

On to `CCCC(=O)N1c2ccccc2C(=C2SC(C(=O)OC)=C(C(=O)OC)S2)C(=S)C1(C)C`, for which the IC50 at Beta-galactosidase was > 66.6 µM (inactive). Further, the half-maximal effective concentration (EC50) (in general, the concentration at which the effect is half-maximal) in [1] is > 60 µM (not active); in the test on H4, > 120 µM (not active); in test [2] it was > 120 µM (not active).

For `COc1ccc(N2CCN(C3=C(Cl)C(=O)N(c4cccc(C)c4)C3=O)CC2)cc1`, the IC50 in test [3] was > 50 µM (inconclusive).

Consider `COc1cc2cc(C(=O)O)[nH]c2c(OC)c1OC`, for which the AC50 (usually the concentration at which the activity in the assay is half-maximal) on Trypsin is 23 µM (active); at CAAX prenyl protease 2 it was > 100 µM (inactive).

On to `COc1ccc(Nc2cc(C)nc3nc(C)nn23)cc1Cl`, for which the IC50 on Bcl-2-like protein 10 was > 100 µM (inactive).

As for `O=C(COc1ccccc1)Nc1cccc(-c2nc3cc4ccccc4cc3[nH]2)c1`, the AC50 at Trypsin is 5.74 µM (active). Further, the concentration for a half-maximal effect (EC50) in test [4] was 11.8 µM (active); in test [5], 12.1 µM (active); in test [6], 1.64 µM (active); in test [7] it was 7.43 µM (active).

On to `Cc1ccc(-n2nnnc2C(Cl)(Cl)c2nnnn2-c2ccc(C)cc2)cc1`, for which the IC50 at Large T antigen was 11.1 µM (active); in [13] it was 4.55 µM (active); in [14], 5.57 µM (active). Besides, the concentration giving a half-maximal response (EC50) was 9.09 µM (active) in test [4]; 15 µM (active) in test [8]; 9.11 µM (active) in test [5]; > 38 µM (not active) in [6]; 1.11 µM (active) in test [11]. In addition, the AC50 in [9] is 4.71 µM (active); in [10], 15.6 µM (active); in test [12], 1.27 µM (active); in test [15], > 70 µM (inactive).

For the compound `O=C1C(Cl)=C(N2CCN(CCOCCO)CC2)C(=O)N1c1cccc(C(F)(F)F)c1`, the IC50 in [3] is > 50 µM (inconclusive).

Take `COc1ccc(NC(C)c2cc(Cl)ccc2O)cc1` (centres undefined): the IC50 is > 100 µM (active) in test [16], 69.1 µM (active) in [17] and 13.9 µM (not active) in [18].

For `CC(C)CC(NC(=O)CCCNC(=O)CCC(=O)OC1O[C@H]2OC3(C)CC[C@H]4[C@H](C)CCC(C1C)C24OO3)C(=O)O` (some centres undefined), the IC50 in test [19] was 31.8 µM (not active); in test [20] it was > 85.4 µM (inactive); on Protein Wnt-3a it was 0.304 µM (active). Further, the AC50 was 5.65 µM (active) in [10] and > 70 µM (inactive) in test [15].

In the case of `CCCCNC(=O)Nc1ccc2nc(-c3ccco3)c(-c3ccco3)nc2c1`, the IC50 in test [21] was 0.452 µM (active).
